Measured values from ChEMBL document CHEMBL3045001, “Synthesis and evaluation of analgesic, anti-inflammatory, and anticancer activities of new pyrazole-3(5)-carboxylic acid derivatives” (Med Chem Res, 2013).

Assays:
[1] = system: Mus musculus; test: Analgesic activity in Mus musculus Swiss albino (mouse) assessed as inhibition of p-benzoquinone-induced abdominal writhing at 100 mg/kg, sc administered 30 min prior to PBQ injection measured after 5 min for 15 min; format: functional, Abdomen; design: scale not given: the % may be the effect or the level left; conditions: route subcutaneous
[2] = system: HeLa; test: Anticancer activity against Homo sapiens (human) HeLa cells assessed as cell viability at 50 uM after 24 hr by MTT assay (reference value: 100 +/-4.13%); format: functional; conditions: read-out: Activity
[3] = system: MDA-MB-231; test: Anticancer activity against Homo sapiens (human) estrogen-independent MDA-MB-231 cells assessed as cell viability at 50 uM after 48 hr by MTT assay (reference value: 100 +/-3.71%); format: functional; conditions: MDA-MB-231, 48 h, read-out: Activity
[4] = organism: Mus musculus; test: Acute toxicity against Mus musculus Swiss albino (mouse) assessed as morbidity after 48 hr; format: organism-based; conditions: in vivo
[5] = organism: Mus musculus; test: Acute toxicity against Mus musculus Swiss albino (mouse) assessed as mortality after 48 hr; format: organism-based; conditions: in vivo
[6] = system: HL-60; test: Anticancer activity against Homo sapiens (human) HL60 cells assessed as cell viability at 50 uM after 48 hr by MTT assay (reference value: 100 +/-8.41%); format: functional; conditions: HL-60, 48 h, read-out: Activity
[7] = system: HL-60; test: Anticancer activity against Homo sapiens (human) HL60 cells assessed as cell viability at 50 uM after 24 hr by MTT assay (reference value: 100 +/-3.55%); format: functional; conditions: HL-60, 24 h, read-out: Activity
[8] = system: MCF7; test: Anticancer activity against Homo sapiens (human) MCF7 cells assessed as cell viability at 50 uM after 48 hr by MTT assay (100 +/-5.08%); format: functional; conditions: MCF7, 48 h, read-out: Activity
[9] = system: MCF7; test: Anticancer activity against Homo sapiens (human) MCF7 cells assessed as cell viability at 50 uM after 24 hr by MTT assay (reference value: 100 +/-2.74%); format: functional; conditions: MCF7, 24 h, read-out: Activity
[10] = system: Raji; test: Anticancer activity against Homo sapiens (human) Raji cells assessed as cell viability at 50 uM after 48 hr by MTT assay (reference value: 100 +/-4.26%); format: functional; conditions: read-out: Activity
[11] = system: Raji; test: Anticancer activity against Homo sapiens (human) Raji cells assessed as cell viability at 50 uM after 24 hr by MTT assay (reference value: 100 +/-5.02%); format: functional; conditions: read-out: Activity
[12] = system: HeLa; test: Anticancer activity against Homo sapiens (human) HeLa cells assessed as cell viability at 50 uM after 48 hr by MTT assay (reference value: 100 +/-3.8%); format: functional; conditions: read-out: Activity
[13] = system: MDA-MB-231; test: Anticancer activity against Homo sapiens (human) estrogen-independent MDA-MB-231 cells assessed as cell viability at 50 uM after 24 hr by MTT assay (reference value: 100 +/-7.08%); format: functional; conditions: MDA-MB-231, 24 h, read-out: Activity
[14] = system: Mus musculus; test: Anti-inflammatory activity in carrageenan-induced Mus musculus Swiss albino (mouse) paw edema model assessed as paw swelling at 100 mg/kg, sc administered 30 min prior to carrageenan injection measured after 270 min (rvb = 75.0 +/-3.0 x10'-2 mm); format: functional; conditions: route subcutaneous
[15] = system: Mus musculus; test: Anti-inflammatory activity in carrageenan-induced Mus musculus Swiss albino (mouse) paw edema model assessed as inhibition of paw edema at 100 mg/kg, sc administered 30 min prior to carrageenan injection measured after 360 min; format: functional; conditions: route subcutaneous
[16] = system: Mus musculus; test: Anti-inflammatory activity in carrageenan-induced Mus musculus Swiss albino (mouse) paw edema model assessed as inhibition of paw edema at 100 mg/kg, sc administered 30 min prior to carrageenan injection measured after 270 min; format: functional; conditions: route subcutaneous
[17] = system: Mus musculus; test: Anti-inflammatory activity in carrageenan-induced Mus musculus Swiss albino (mouse) paw edema model assessed as inhibition of paw edema at 100 mg/kg, sc administered 30 min prior to carrageenan injection measured after 180 min; format: functional; conditions: route subcutaneous
[18] = system: Mus musculus; test: Anti-inflammatory activity in carrageenan-induced Mus musculus Swiss albino (mouse) paw edema model assessed as paw swelling at 100 mg/kg, sc administered 30 min prior to carrageenan injection measured after 360 min (reference value: 77.0 +/-3.0 x10'-2 mm); format: functional; conditions: route subcutaneous
[19] = system: Mus musculus; test: Anti-inflammatory activity in carrageenan-induced Mus musculus Swiss albino (mouse) paw edema model assessed as paw swelling at 100 mg/kg, sc administered 30 min prior to carrageenan injection measured after 180 min (reference value: 51.0 +/-3.0 x10'-2 mm); format: functional; conditions: route subcutaneous
[20] = system: Mus musculus; test: Anti-inflammatory activity in carrageenan-induced Mus musculus Swiss albino (mouse) paw edema model assessed as paw swelling at 100 mg/kg, sc administered 30 min prior to carrageenan injection measured after 90 min (reference value: 38.0 +/-2.0 x10'-2 mm); format: functional; conditions: route subcutaneous
[21] = system: Mus musculus; test: Anti-inflammatory activity in carrageenan-induced Mus musculus Swiss albino (mouse) paw edema model assessed as inhibition of paw edema at 100 mg/kg, sc administered 30 min prior to carrageenan injection measured after 90 min; format: functional; conditions: route subcutaneous

CC(=O)Oc1ccccc1C(=O)O [ASPIRIN]
Activity [1]: 68.9%

Cc1ccc(-c2cc(C(=O)Oc3ccc(C(C)(C)C)cc3)n(Cc3ccccc3)n2)cc1
viability at 50 µM [2]: 83.2% | viability at 50 µM [3]: 62.9% | Activity [4]: Non-toxic | Activity [5]: Non-toxic | viability at 50 µM [6]: 112% | viability at 50 µM [7]: 120% | viability at 50 µM [8]: 94.9% | viability at 50 µM [9]: 93.2% | viability at 50 µM [10]: 103% | viability at 50 µM [11]: 94.9% | viability at 50 µM [12]: 81.4% | viability at 50 µM [13]: 119% | Activity [14]: 38 ×10⁻² mm | inhibition in vivo at 100 mg/kg [15]: 62% | inhibition in vivo at 100 mg/kg [16]: 50% | inhibition in vivo at 100 mg/kg [17]: 35% | Activity [18]: 29 ×10⁻² mm | Activity [19]: 33 ×10⁻² mm | Activity [20]: 40 ×10⁻² mm | Activity [1]: 10.9%

Cc1ccc(-c2cc(C(=O)Oc3ccc(Oc4ccc(C(F)(F)F)cc4)cc3)n(Cc3ccccc3)n2)cc1
viability at 50 µM [2]: 89.1% | viability at 50 µM [3]: 50.3% | Activity [4]: Non-toxic | Activity [5]: Non-toxic | viability at 50 µM [6]: 86.3% | viability at 50 µM [7]: 114% | viability at 50 µM [8]: 107% | viability at 50 µM [9]: 63.6% | viability at 50 µM [10]: 121% | viability at 50 µM [11]: 111% | viability at 50 µM [12]: 77.4% | viability at 50 µM [13]: 75.5% | Activity [14]: 58 ×10⁻² mm | inhibition in vivo at 100 mg/kg [15]: 14.1% | inhibition in vivo at 100 mg/kg [16]: 22.2% | inhibition in vivo at 100 mg/kg [17]: 17% | Activity [18]: 66 ×10⁻² mm | Activity [19]: 43 ×10⁻² mm | Activity [20]: 40 ×10⁻² mm | Activity [1]: 56.9%

CCOC(=O)C1CCN(C(=O)c2cc(-c3ccc(C)cc3)n(Cc3ccccc3)n2)CC1
viability at 50 µM [2]: 66.4% | viability at 50 µM [3]: 71.8% | Activity [4]: Non-toxic | Activity [5]: Non-toxic | viability at 50 µM [6]: 78.8% | viability at 50 µM [7]: 88.2% | viability at 50 µM [8]: 94.5% | viability at 50 µM [9]: 77.8% | viability at 50 µM [10]: 41.6% | viability at 50 µM [11]: 56.5% | viability at 50 µM [12]: 47.1% | viability at 50 µM [13]: 121% | Activity [14]: 32 ×10⁻² mm | inhibition in vivo at 100 mg/kg [15]: 59.8% | inhibition in vivo at 100 mg/kg [16]: 57.8% | inhibition in vivo at 100 mg/kg [17]: 13.9% | Activity [18]: 31 ×10⁻² mm | Activity [19]: 44 ×10⁻² mm | Activity [20]: 40 ×10⁻² mm | Activity [1]: 83.2%

Cc1ccc(-c2cc(C(=O)Oc3ccc(C(C)C)cc3)n(Cc3ccccc3)n2)cc1
viability at 50 µM [2]: 87.2% | viability at 50 µM [3]: 50.2% | Activity [4]: Non-toxic | Activity [5]: Non-toxic | viability at 50 µM [6]: 126% | viability at 50 µM [7]: 115% | viability at 50 µM [8]: 90.5% | viability at 50 µM [9]: 80.3% | viability at 50 µM [10]: 94.2% | viability at 50 µM [11]: 105% | viability at 50 µM [12]: 69.7% | viability at 50 µM [13]: 71.9% | Activity [14]: 53 ×10⁻² mm | inhibition in vivo at 100 mg/kg [15]: 31.5% | inhibition in vivo at 100 mg/kg [16]: 29% | inhibition in vivo at 100 mg/kg [17]: 24% | Activity [18]: 53 ×10⁻² mm | Activity [19]: 39 ×10⁻² mm | Activity [20]: 38.3 ×10⁻² mm | Activity [1]: 33%

CCCCCCCOc1ccc(OC(=O)c2cc(-c3ccc(C)cc3)nn2Cc2ccccc2)cc1
viability at 50 µM [2]: 109% | viability at 50 µM [3]: 63.2% | Activity [4]: Non-toxic | Activity [5]: Non-toxic | viability at 50 µM [6]: 108% | viability at 50 µM [7]: 118% | viability at 50 µM [8]: 97.6% | viability at 50 µM [9]: 100% | viability at 50 µM [10]: 84.3% | viability at 50 µM [11]: 76.3% | viability at 50 µM [12]: 85.3% | viability at 50 µM [13]: 115% | Activity [14]: 68 ×10⁻² mm | inhibition in vivo at 100 mg/kg [16]: 10% | inhibition in vivo at 100 mg/kg [17]: 9% | Activity [18]: 80 ×10⁻² mm | Activity [19]: 47 ×10⁻² mm | Activity [20]: 42.5 ×10⁻² mm

Cc1ccc(-c2cc(C(=O)NCc3cccnc3)n(Cc3ccccc3)n2)cc1
viability at 50 µM [2]: 74.9% | viability at 50 µM [3]: 43.1% | Activity [4]: Non-toxic | Activity [5]: Non-toxic | viability at 50 µM [6]: 41.9% | viability at 50 µM [7]: 31.7% | viability at 50 µM [8]: 100% | viability at 50 µM [9]: 105% | viability at 50 µM [10]: 93.4% | viability at 50 µM [11]: 86.4% | viability at 50 µM [12]: 82.6% | viability at 50 µM [13]: 65.1% | Activity [14]: 57 ×10⁻² mm | inhibition in vivo at 100 mg/kg [15]: 25.3% | inhibition in vivo at 100 mg/kg [16]: 24.4% | inhibition in vivo at 100 mg/kg [17]: 16.5% | inhibition in vivo at 100 mg/kg [21]: 3.7% | Activity [18]: 57 ×10⁻² mm | Activity [19]: 43 ×10⁻² mm | Activity [20]: 36 ×10⁻² mm

Cc1ccc(-c2cc(C(=O)N3CCN(Cc4ccc(C(C)C)cc4)CC3)n(Cc3ccccc3)n2)cc1
viability at 50 µM [2]: 84.8% | viability at 50 µM [3]: 51% | Activity [4]: Non-toxic | Activity [5]: Non-toxic | viability at 50 µM [6]: 104% | viability at 50 µM [7]: 128% | viability at 50 µM [8]: 66.6% | viability at 50 µM [9]: 94.4% | viability at 50 µM [10]: 109% | viability at 50 µM [11]: 101% | viability at 50 µM [12]: 60.6% | viability at 50 µM [13]: 74% | Activity [14]: 55 ×10⁻² mm | inhibition in vivo at 100 mg/kg [15]: 30.4% | inhibition in vivo at 100 mg/kg [16]: 26.7% | inhibition in vivo at 100 mg/kg [17]: 4.1% | Activity [18]: 53 ×10⁻² mm | Activity [19]: 49 ×10⁻² mm | Activity [20]: 44.2 ×10⁻² mm
